The results in this text go back to patent US12391695B2, “PRMT5 inhibitors” (Lupin Limited, priority 2019, dated 2025).

SMILES strings stand for the structures. Like-named read-outs stand apart in the source and are kept apart here.

One experiment concerns Z-138 cells. The experiment in a line: Anti-cancer assay (Z-138), cell viability by CellTiterGlo. It counts as cell-based. The conditions noted are these: Homo sapiens, 96 h treatment, read-out: IC50 (activity range), inhibition of cell viability. As for the experimental part: Z-138 cells were seeded at a density of 2000-3000 cells per well in culture media (IMDM+10% FBS). PANC-1 (ATCC, CRL-1469™) and MIA PaCa-2 (ATCC, CRL-1420™) cells were seeded at a density of 200-300 cells per well in culture media (DMEM+10% FBS). Cells were seeded in opaque, flat bottomed tissue culture grade 96-well plates and Z-138 cells (suspension) were seeded and treated on the same day with various concentrations of test compounds. PANC-1 and MIA PaCa-2 cells, being adherent, were kept for overnight settlement at standard cell culture conditions (37° C., 5% CO2). On the following day, cells were treated with various concentrations of test compounds. Cells were treated with test compounds for a period of 96 h, 7 days and 10 days, for Z-138 cells, PANC-1 cells and MIA PaCa-2 cells, respectively. Cell viability was assessed using CellTiterGlo™ (Promega, USA) as per manufacturer's instructions. Relative Light Units (RLU) were read in Synergy™ 2 reader (Biotek, USA). The assay measures cellular ATP as an indicator of cell viability. RLU is proportional to the number of viable cells in the respective well. % inhibition of cell viability was calculated relative to the vehicle control samples containing media with 0.1% DMSO alone as per the formula below. (Avg. of Untreated Control−Avg. of Test)×100 Avg. Of Untreated Control
The IC50 values of individual compounds were calculated with Non Linear Regression Analysis using Graph Pad Prism (Graph Pad software, Inc, USA). • Anti-Cancer Assay (Z-138)

For a further experiment, the system named is SDMA. The experiment in a line: SDMA inhibition assay in Z-138 cells (ELISA with anti-SDMA antibody). Format: cell-based. Conditions: Homo sapiens, Z-138, 48 h, 48 h treatment. As to the method: Z-138 cells (ATCC, CRL-3001™) were seeded at a density of 1 million cells/well in transparent, flat bottomed tissue culture grade 48-well plates. Cells were treated with various concentration of test compounds for a period of 48 h. Cell lysate was prepared using 1× CST Lysis buffer (Cell Signaling Technology, USA) and 500 ng/well/50 μL of lysate in pH 9.6 carbonate buffer was coated on 96-well Maxisorb plate and incubated overnight at 4° C. The plate was washed twice in 1×PBS containing 0.05% Tween 20 and blocked in 1% BSA for 1 h at ambient temperature. Further, the plate was incubated first with primary antibody (anti-SDMA antibody; CST #13222s) at ambient temperature for 2 h and then with HRP-conjugated secondary antibody at ambient temperature for 1 h with 2 intermittent washing steps in between.
For luminiscence based detection, HRP substrates (substrate A+substrate B in a 1:1 proportion) were added followed by luminiscence reading after 30 min in Synergy™ 2 reader (Biotek, USA).
For absorbance based detection, TMB substrate was added followed by addition of STOP solution (2N H2SO4) post colour development and absorbance (excitation 450 nm and emission 540 nm) was measured in Synergy™ 2 reader (Biotek, USA).
% inhibition of SDMA was calculated relative to the vehicle control samples containing media with 0.1% DMSO alone as per the formula below. (Avg. of Untreated Control−Avg. of Test)×100 Avg. Of Untreated Control
The IC50 values of individual compounds were calculated with Non Linear Regression Analysis using Graph Pad Prism (Graph Pad software, Inc, USA).

A further experiment addresses PRMT5:MEP50 (Homo sapiens, UniProt O14744). The experiment is described as follows: PRMT5 biochemical assay (HTRF, biotinylated H4R3 substrate), protocols 1 and 2. The conditions noted are these: 1 μM SAM, 50 nM biotinylated H4R3, protocol 1 or 2 not given, read-out: IC50 (activity range), inhibition of PRMT5. As to the method: (§1) Inhibitory effect of compounds on PRMT5 was assessed using HTRF detection technology in biochemical assay. Biotinylated H4R3 (residues 1-21) was used as a substrate. Compounds were pre-incubated with 15-25 ng PRMT5:MEP50 per well of a 384-well plate for 30 min at room temperature in the assay buffer containing 20 mM Bicine, pH 7.6, 25 mM NaCl, 2 mM DTT, 0.01% Chicken albumin and 0.01% Tween-20. Reaction was initiated by adding 1 μM of SAM and 50 nM biotinylated H4R3. Total assay volume was 15 μL. Reaction was continued for 120 min at room temperature. Then detection solution containing Streptavidin-Eu cryptate, anti-rabbit IgG-XL-665, Histone H4R3 Dimethyl Symmetric (H4R3me2s) Polyclonal Antibody, all prepared in HTRF detection buffer was added and further incubated for 30 min at room temperature. HTRF signal was recorded in PHERAStar microplate reader. Ratio of signal obtained at 665 nm and 620 nm was used to compute the percent inhibition of compound as follows % Inhibition=100−((Test Ratio−Negative control Ratio)/(Positive control Ratio−Negative control Ratio)*100) where Positive control=PRMT5+SAM+H4R3 Negative control=PRMT5+H4R3 Biochemical Assay Protocol 2
as §1, with “2.5” for “15-25”, “4 h” for “120 min”, “control=PRMT5+H4R3” for “control=PRMT5+H4R3 Biochemical Assay Protocol 2”

Setting [1] is: read-out: IC50 (activity range), SDMA inhibition.
Where [2] appears, read: range with mixed units pM/nM, units kept in the value.

Sequence of PRMT5:MEP50 (O14744 whole entry, the tested form may be a part): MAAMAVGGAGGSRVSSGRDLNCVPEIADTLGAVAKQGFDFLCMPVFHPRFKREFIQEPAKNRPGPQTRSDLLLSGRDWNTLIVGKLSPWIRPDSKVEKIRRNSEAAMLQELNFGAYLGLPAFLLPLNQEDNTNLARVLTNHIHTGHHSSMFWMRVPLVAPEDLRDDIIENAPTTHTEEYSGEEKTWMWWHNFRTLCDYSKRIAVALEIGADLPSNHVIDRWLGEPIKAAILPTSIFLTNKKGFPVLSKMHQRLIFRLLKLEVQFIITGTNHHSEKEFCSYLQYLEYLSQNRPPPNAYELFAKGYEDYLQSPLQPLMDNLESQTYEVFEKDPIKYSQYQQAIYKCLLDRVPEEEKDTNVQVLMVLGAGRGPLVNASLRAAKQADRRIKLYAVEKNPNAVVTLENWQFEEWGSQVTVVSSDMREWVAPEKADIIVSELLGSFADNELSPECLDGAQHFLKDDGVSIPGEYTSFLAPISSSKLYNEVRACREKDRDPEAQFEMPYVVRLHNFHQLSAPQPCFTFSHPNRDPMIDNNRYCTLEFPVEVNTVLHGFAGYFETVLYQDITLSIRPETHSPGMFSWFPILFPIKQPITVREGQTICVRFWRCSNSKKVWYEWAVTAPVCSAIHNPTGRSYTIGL
Sequence of PRMT5:MEP50 (Q9BQA1 whole entry partner, the tested form may be a part): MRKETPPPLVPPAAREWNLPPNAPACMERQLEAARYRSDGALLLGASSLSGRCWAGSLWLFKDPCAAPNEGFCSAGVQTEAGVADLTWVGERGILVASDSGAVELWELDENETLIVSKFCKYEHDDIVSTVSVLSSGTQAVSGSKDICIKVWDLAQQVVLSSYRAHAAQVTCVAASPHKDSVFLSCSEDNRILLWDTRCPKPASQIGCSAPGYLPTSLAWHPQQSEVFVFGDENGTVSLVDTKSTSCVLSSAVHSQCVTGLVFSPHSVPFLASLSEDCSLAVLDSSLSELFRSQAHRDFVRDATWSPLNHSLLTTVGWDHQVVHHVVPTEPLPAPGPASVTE

Consider `CC1CNCc2c(CCC3=C[C@@H](n4ccc5c(N)ncnc54)[C@H](O)[C@@H]3O)cc(C(F)F)c(F)c21` (single isomer, unassigned) [Compound 22A], for which the results for the IC50 in the experiment on Z-138 cells, in the experiment on SDMA (setting [1]) and at PRMT5:MEP50 were over 1000 pM, 1100 to 50000 pM and 0.25 to 0.95 nM, respectively.

With `CC1CNCc2c(CCC3=C[C@@H](n4ccc5c(N)ncnc54)[C@H](O)[C@@H]3O)cc(C(F)F)c(F)c21` (single isomer, unassigned) [Compound 22B], the IC50 in the experiment with SDMA (setting [2]) was 100 to 1000 pM.

Consider `CC1Cc2c(F)c(C(F)F)cc(CCC3=C[C@@H](n4ccc5c(N)ncnc54)[C@H](O)[C@@H]3O)c2CN1` (single isomer, unassigned) [Compound 23A], for which the figures for the IC50 with SDMA (setting [2]) and at PRMT5:MEP50 were 100 to 1000 pM and 0.25 to 0.95 nM, respectively.

On to `CC1Cc2c(F)c(C(F)F)cc(CCC3=C[C@@H](n4ccc5c(N)ncnc54)[C@H](O)[C@@H]3O)c2CN1` (single isomer, unassigned) [Compound 23B], for which the IC50 was over 1000 pM with Z-138 cells and 1100 to 50000 pM in the experiment with SDMA (setting [1]).

For the compound `Nc1nc2cc(CCC3=C[C@@H](n4cnc5c(N)ncnc54)[C@H](O)[C@@H]3O)cc(F)c2cc1Cl` [Compound 1, (1S,2R,5R)-3-(2-(2-Amino-3-chloro-5-fluoroquinolin-7-yl)ethyl)-5-(6-amino-9H-purin-9-yl)cyclopent-3-ene-1,2-diol], the IC50 fell in the range of 100 to 1000 pM in the experiment on SDMA (setting [2]) and 0.25 to 0.95 nM at PRMT5:MEP50.

As for `Nc1nc2cc(CCC3=C[C@@H](n4ccc5c(N)ncnc54)[C@H](O)[C@@H]3O)cnc2cc1Cl` [Compound 2, (1S,2R,5R)-3-(2-(6-Amino-7-chloro-1,5-naphthyridin-3-yl)ethyl)-5-(4-amino-7H-pyrrolo [2,3-d]pyrimidin-7-yl)cyclopent-3-ene-1,2-diol], the IC50 was over 1000 pM in the experiment with Z-138 cells, 1100 to 50000 pM in the experiment on SDMA (setting [1]) and 0.25 to 0.95 nM at PRMT5:MEP50.

As to `Nc1cnc2ccc(CCC3=C[C@@H](n4ccc5c(N)ncnc54)[C@H](O)[C@@H]3O)cc2n1` [Compound 3, (1S,2R,5R)-5-(4-Amino-7H-pyrrolo[2,3-d]pyrimidin-7-yl)-3-(2-(3-aminoquinoxalin-6-yl)ethyl)cyclopent-3-ene-1,2-diol], the IC50 was over 1000 pM in the experiment with Z-138 cells, 1100 to 50000 pM in the experiment with SDMA (setting [1]) and 0.25 to 0.95 nM at PRMT5:MEP50.

As to `Nc1cnc2ccc(CC[C@@]34C[C@@H]3[C@@H](n3ccc5c(N)ncnc53)[C@H](O)[C@@H]4O)cc2n1` [Compound 4, (1R,2R,3S,4R,5S)-4-(4-Amino-7H-pyrrolo[2,3-d]pyrimidin-7-yl)-1-(2-(3-aminoquinoxalin-6-yl)ethyl)bicyclo[3.1.0]hexane-2,3-diol], the IC50 is over 1000 pM in the experiment on Z-138 cells, 1100 to 50000 pM with SDMA (setting [1]) and 0.25 to 0.95 nM on PRMT5:MEP50.

Take `Nc1nc2cc(CCC3=C[C@@H](n4ncc5c(N)ncnc54)[C@H](O)[C@@H]3O)cc(F)c2cc1Cl` [Compound 5, (1S,2R,5R)-5-(4-Amino-1H-pyrazolo[3,4-d]pyrimidin-1-yl)-3-(2-(2-amino-3-chloro-5-fluoroquinolin-7-yl)ethyl)cyclopent-3-ene-1,2-diol]: the values for the IC50 in the experiment with Z-138 cells (setting [2]), in the experiment with SDMA (setting [2]) and at PRMT5:MEP50 were 101 to 1000 pM, 100 to 1000 pM and 0.25 to 0.95 nM, respectively.

As to `Cc1nc(N)c2cnn([C@@H]3C=C(CCc4cc(F)c5cc(Cl)c(N)nc5c4)[C@@H](O)[C@H]3O)c2n1` [Compound 6, (1S,2R,5R)-3-(2-(2-amino-3-chloro-5-fluoroquinolin-7-yl)ethyl)-5-(4-amino-6-methyl-1H-pyrazolo[3,4-d]pyrimidin-1-yl)cyclopent-3-ene-1,2-diol], the IC50 with Z-138 cells (setting [2]) was 101 to 1000 pM; with SDMA (setting [1]) it was 1100 to 50000 pM; on PRMT5:MEP50, 0.25 to 0.95 nM.

For `Nc1ncnc2c1ccn2[C@@H]1C=C(COc2cc(C(F)F)cc3c2CNCC3)[C@@H](O)[C@H]1O` [Compound 7, (1S,2R,5R)-5-(4-amino-7H-pyrrolo[2,3-d]pyrimidin-7-yl)-3-(((6-(difluoromethyl)-1,2,3,4-tetrahydroisoquinolin-8-yl)oxy)methyl)cyclopent-3-ene-1,2-diol], the IC50 was over 1000 pM with Z-138 cells, 1100 to 50000 pM in the experiment on SDMA (setting [1]) and 0.25 to 0.95 nM on PRMT5:MEP50.

Turning to `Nc1ccn([C@@H]2C=C(COc3cc(F)c4cc(Cl)c(N)nc4c3)[C@@H](O)[C@H]2O)c(=O)n1` [Compound 16, 4-Amino-1-((1R,4R,5S)-3-(((2-amino-3-chloro-5-fluoroquinolin-7-yl)oxy)methyl)-4,5-dihydroxycyclopent-2-en-1-yl)pyrimidin-2 (1H)-one], the IC50 at PRMT5:MEP50 lay in the range of 0.25 to 0.95 nM.

`Nc1nc2cc(CCC3=C[C@@H](n4ccc5c4ncn4ccnc54)[C@H](O)[C@@H]3O)cc(F)c2cc1Cl` [Compound 27, (1S,2R,5R)-3-(2-(2-Amino-3-chloro-5-fluoroquinolin-7-yl)ethyl)-5-(7H-imidazo[1,2-c]pyrrolo[3,2-e]pyrimidin-7-yl)cyclopent-3-ene-1,2-diol]: the IC50 with Z-138 cells is over 1000 pM; at PRMT5:MEP50, over 0.95 nM.

`Nc1nc2cc(CCC3=C[C@@H](n4ccc5cn6ccnc6nc54)[C@H](O)[C@@H]3O)ccc2cc1Cl` [Compound 28, (1S,2R,5R)-3-(2-(2-Amino-3-chloroquinolin-7-yl)ethyl)-5-(8H-imidazo[1,2-a]pyrrolo[2,3-d]pyrimidin-8-yl)cyclopent-3-ene-1,2-diol]: the IC50 was over 1000 pM with Z-138 cells and over 0.95 nM at PRMT5:MEP50.

As to `Nc1nc2cc(CCC3=C[C@@H](n4ncc5c4ncn4ccnc54)[C@H](O)[C@@H]3O)cc(F)c2cc1Cl` [Compound 29, (1S,2R,5R)-3-(2-(2-Amino-3-chloro-5-fluoroquinolin-7-yl)ethyl)-5-(7H-imidazo[1,2-c]pyrazolo[4,3-e]pyrimidin-7-yl)cyclopent-3-ene-1,2-diol], on PRMT5:MEP50, the half-maximal inhibitory concentration (IC50) is over 0.95 nM.

For `CONc1ncnc2c1ccn2[C@@H]1C=C(CCc2cc(F)c3cc(Cl)c(N)nc3c2)[C@@H](O)[C@H]1O` [Compound 30, (1S,2R,5R)-3-(2-(2-Amino-3-chloro-5-fluoroquinolin-7-yl)ethyl)-5-(4-(methoxyamino)-7H-pyrrolo[2,3-d]pyrimidin-7-yl)cyclopent-3-ene-1,2-diol], the IC50 in the experiment with SDMA (setting [2]) fell in the range of 100 to 1000 pM; at PRMT5:MEP50, 0.25 to 0.95 nM.
